Consider 3 molecules from patent US9333209B2, “Compositions for increasing hair growth” (The Board of Trustees of the Leland Stanford Junior …, priority 2012, dated 2016).

The subject of assay [1] is murine hair follicle cycling. Conditions: small molecule screen of calcium blockers; mice. Here is the method: To understand how calcium signaling controls hair follicle stem cell regulation, a screen for small molecules that affect murine hair follicle cycling was carried out. The compounds included a survey of different classes of cell permeable slow and fast channel blockers applied to the skin.
We performed a small molecule screen to find out if any of the available calcium blockers affected hair follicle cycling.

The subject of assay [2] is bulge stem cells of Cav fx/-; K15 CrePR mice. The experiment in a line: Verapamil treatment of RU486 treated Cav fx/-; K15 CrePR mice. The assay is classed as in vivo, mouse. The text has this:
Loss of function mutation of this channel entails a removal of exon 13 and 14 of Cav 1.2 gene (FIG. 1). […] Cav fx/- mice were crossed to K15CrePR animals to remove the pore region of the channel in the bulge stem cells. RU486 treatment of Cav fx/-; K15CrePR allowed the removal of the pore region. […] Loss of function mutation, which represents the closed state of this channel, results in the same phenotype as the open state of the channel.

A further assay has as its system bulge stem cells. The experiment in a line: microarray analysis and RT-PCR on Verapamil treated bulge cells. The assay is classed as in vivo, mouse. The text has this:
Out of those, the gene Follistatin like 1 (Fstl1) stood out. Fstl1 is a secreted glycoprotein that inhibits BMP signaling in lung and ureter development.
There are other BMP inhibitors that are known to affect hair cycling.

Assay [3] concerns hair follicles of wild type mice. Briefly: Verapamil treatment of wild type mice in first telogen.
The test system of a further assay is hair cycling. Briefly: subcutaneous injection of Fstl1 protein soaked beads, effect on hair cycling. To be noted: half dose (2 μg) soaked beads, Day 21-22 mice. The assay is classed as in vivo, mouse. Here is the method:
To understand the effect of Fstl1 on hair cycling, we subcutaneously injected two different doses of Fstl1 protein (4 μg and 2 μg) soaked beads to Day 21-22 mice. In 2 to 4 days, these mice went into anagen (n=8, FIG. 7D).

Where [4] appears, read: treated bulge stem cells vs control bulge stem cells.

Entries after “also recorded” stand apart in the source; their conditions may differ.

For the molecule `COc1ccc([C@@H]2Sc3ccccc3N(CCN(C)C)C(=O)[C@@H]2OC(C)=O)cc1` [Diltiazem, diltiazem], in assay [1], the entry to anagen entry was “showed the same results; also recorded: precocious entry into anagen”.
With `COc1ccc(CCN(C)CCCC(C#N)(c2ccc(OC)c(OC)c2)C(C)C)cc1OC` (stereo not shown) [Verapamil, verapamil], the “anagen entry later than wild type littermates” value in assay [2] (drug treated Cav fx/-, K15 CrePR mutant mice, RU486 treated) was 2 to 4 days. Moreover, the “H and E staining of skin sections” value in assay [2] (treated mice vs control skin with telogen hair follicles) is listed as “anagen hair follicles”. Besides, in the assay with bulge stem cells (treated bulge stem cells), the Bambi expression entry is given as “downregulated” and the Noggin expression entry is reported as “downregulated”. For the same molecule, in the assay with bulge stem cells (setting [4]), the “Fstl1 expression (RT-PCR)” value is recorded as “upregulated” and the Tmeff1 expression result is recorded as “does not change much”. For the same molecule, the “H and E staining of skin sections” value in assay [3] (drug treated wild type mice vs telogen hair follicles in control mice) was “anagen hair follicles”. Besides, the “early anagen (advance of anagen entry)” value in assay [3] (wild type mice treated between days 21 and 28 (first telogen), n=8) was 5 to 7 days.

B1: Fstl1 protein: secreted glycoprotein that inhibits BMP signaling; deduced 308-amino acid protein with FS module (protein, UniProt Q12841 21-308, looked up)
Follistatin-related protein 1: EEELRSKSKICANVFCGAGRECAVTEKGEPTCLCIEQCKPHKRPVCGSNGKTYLNHCELHRDACLTGSKIQVDYDGHCKEKKSVSPSASPVVCYQSNRDELRRRIIQWLEAEIIPDGWFSKGSNYSEILDKYFKNFDNGDSRLDSSEFLKFVEQNETAINITTYPDQENNKLLRGLCVDALIELSDENADWKLSFQEFLKCLNPSFNPPEKKCALEDETYADGAETEVDCNRCVCACGNWVCTAMTCDGKNQKGAQTQTEEEMTRYVQELQKHQETAEKTKRVSTKEI
For the molecule B1, the entry to anagen entry in the assay on hair cycling is listed as “only partial entry to anagen”.
